Where two headings read alike, the source gives them in different places.

One series addresses T1, DNMT3B/3L (Homo sapiens, UniProt Q9UBC3).
T1 construct: purchased BPS Bioscience (contracted assay service)
Nature of the series: Epigenetic panel (BPS Bioscience). In kind it is biochemical. The method in brief: (§1)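 Binding at 10 μM was measured in duplicate for CM-444 and CM-1758 as part of a selectivity screen spanning many epigenetic readers, writers and erasers.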

A further series concerns the target T2, EZH2 (A677G) (Homo sapiens, UniProt Q15910, A677G).
T2 construct: purchased BPS Bioscience; Eurofins (HDAC4, 5, 7-11)
Description: Epigenetic panel (BPS Bioscience). It counts as biochemical. The gist of the method:
as §1

Another series concerns the target T3, JMJD2C (Homo sapiens, UniProt Q9H3R0).
T3 construct: purchased BPS Bioscience; Eurofins (HDAC4, 5, 7-11)
Nature of the series: Epigenetic panel (BPS Bioscience). It counts as biochemical. The method in brief: as §1

A further series has as its target T4, JMJD2D (Homo sapiens, UniProt Q6B0I6).
T4 construct: purchased BPS Bioscience; Eurofins (HDAC4, 5, 7-11)
Description: Epigenetic panel (BPS Bioscience). In kind it is biochemical. The method in brief: as §1

For a further series, the target named is T5, LSD1 (Homo sapiens, UniProt O60341).
T5 construct: purchased BPS Bioscience; Eurofins (HDAC4, 5, 7-11)
Nature of the series: Epigenetic panel (BPS Bioscience). In kind it is biochemical. The method in brief:
as §1

The next series has as its target T6, NSD2 (Homo sapiens, UniProt O96028).
T6 construct: purchased BPS Bioscience; Eurofins (HDAC4, 5, 7-11)
Nature of the series: Epigenetic panel (BPS Bioscience). In kind it is biochemical. The method in brief:
as §1

The next series deals with T7, PRMT1 (Homo sapiens, UniProt Q99873).
T7 construct: purchased BPS Bioscience; Eurofins (HDAC4, 5, 7-11)
Description: Epigenetic panel (BPS Bioscience). In kind it is biochemical. The gist of the method: as §1

A further series deals with T8, PRMT8 (Homo sapiens, UniProt Q9NR22).
T8 construct: purchased BPS Bioscience; Eurofins (HDAC4, 5, 7-11)
Nature of the series: Epigenetic panel (BPS Bioscience). In kind it is biochemical. The method in brief:
as §1

In a further series the target is T9, SIRT1 (Homo sapiens, UniProt Q96EB6).
T9 construct: purchased BPS Bioscience; Eurofins (HDAC4, 5, 7-11)
Description: Epigenetic panel (BPS Bioscience). In kind it is biochemical. The gist of the method:
as §1

Another series has as its target T10, SIRT6 (Homo sapiens, UniProt Q8N6T7).
T10 construct: purchased BPS Bioscience; Eurofins (HDAC4, 5, 7-11)
Nature of the series: Epigenetic panel (BPS Bioscience). It counts as biochemical. The gist of the method: as §1

In the next series the target is T11, SUV39H1 (Homo sapiens, UniProt O43463).
T11 construct: purchased BPS Bioscience; Eurofins (HDAC4, 5, 7-11)
Description: Epigenetic panel (BPS Bioscience). It counts as biochemical. The method in brief:
as §1

Another series deals with T12, UTX (Homo sapiens, UniProt O15550).
T12 construct: purchased BPS Bioscience (contracted assay service)
Nature of the series: Epigenetic panel (BPS Bioscience). In kind it is biochemical. The gist of the method:
as §1

Series [1] in a line: Cryopreserved hepatocyte stability. In kind it is in vitro ADME. As to conditions: read-out: Liver Hepatocytes Estimation T1/2. How it is done:
This study was conducted at Wuxi (http://www.wuxi.com/). […] Stock solutions of test compound (10 mM; 100% DMSO) and positive controls (7-ethoxycoumarin and 7-hydroxycoumarin; 30 mM; 100% DMSO) were diluted to 1 mM and 3 mM with DMSO and then diluted to 100 μM and 300 μM with acetonitrile (dosing solutions). Cryopreserved cells (from Human Donors, Bioreclamation IVT, Cat No. X008001 and from male C57 Mice, Bioreclamation IVT, Cat No. S00463) were thawed, isolated and suspended in Williams’ Medium E, then diluted with pre-warmed Williams’ Medium E to 0.5 × 10^6 cells/mL. Cell viability was tested by trypan blue exclusion after thawing. A volume of 2 μL of dosing solution and 198 μL of pre-warmed cell suspensions were added to a 96-well plate and incubated at 37 °C (5% CO2) with constant shaking at 600 rpm. Following different incubation times (0, 15, 30, 60 and 90 min), 20 μL of each sample was transferred to a well containing 80 μL of ice-cold stop solution (acetonitrile containing 200 ng/mL tolbutamide and 200 ng/mL labetalol as internal standards). Plates were vortexed at 27 g for 10 min and then centrifuged at 3220 × g for 20 min at 4 °C. An aliquot of supernatant (75 μL) was transferred from each well and mixed with 75 μL of ultra-pure water before submitting to LC-MS/MS analysis. Concentrations of test and control compounds were quantified by LC-MS/MS using a peak area ratio of analyte/internal standard, and the percent loss of the parent compound was calculated at each time point to determine the half-life (t1/2, min). Experiments were performed in duplicate.

Setting [2] is: cryopreserved hepatocytes, Human.
Where [3] appears, read: male, C57, cryopreserved hepatocytes, Mouse.

T12 sequence (O15550 whole entry): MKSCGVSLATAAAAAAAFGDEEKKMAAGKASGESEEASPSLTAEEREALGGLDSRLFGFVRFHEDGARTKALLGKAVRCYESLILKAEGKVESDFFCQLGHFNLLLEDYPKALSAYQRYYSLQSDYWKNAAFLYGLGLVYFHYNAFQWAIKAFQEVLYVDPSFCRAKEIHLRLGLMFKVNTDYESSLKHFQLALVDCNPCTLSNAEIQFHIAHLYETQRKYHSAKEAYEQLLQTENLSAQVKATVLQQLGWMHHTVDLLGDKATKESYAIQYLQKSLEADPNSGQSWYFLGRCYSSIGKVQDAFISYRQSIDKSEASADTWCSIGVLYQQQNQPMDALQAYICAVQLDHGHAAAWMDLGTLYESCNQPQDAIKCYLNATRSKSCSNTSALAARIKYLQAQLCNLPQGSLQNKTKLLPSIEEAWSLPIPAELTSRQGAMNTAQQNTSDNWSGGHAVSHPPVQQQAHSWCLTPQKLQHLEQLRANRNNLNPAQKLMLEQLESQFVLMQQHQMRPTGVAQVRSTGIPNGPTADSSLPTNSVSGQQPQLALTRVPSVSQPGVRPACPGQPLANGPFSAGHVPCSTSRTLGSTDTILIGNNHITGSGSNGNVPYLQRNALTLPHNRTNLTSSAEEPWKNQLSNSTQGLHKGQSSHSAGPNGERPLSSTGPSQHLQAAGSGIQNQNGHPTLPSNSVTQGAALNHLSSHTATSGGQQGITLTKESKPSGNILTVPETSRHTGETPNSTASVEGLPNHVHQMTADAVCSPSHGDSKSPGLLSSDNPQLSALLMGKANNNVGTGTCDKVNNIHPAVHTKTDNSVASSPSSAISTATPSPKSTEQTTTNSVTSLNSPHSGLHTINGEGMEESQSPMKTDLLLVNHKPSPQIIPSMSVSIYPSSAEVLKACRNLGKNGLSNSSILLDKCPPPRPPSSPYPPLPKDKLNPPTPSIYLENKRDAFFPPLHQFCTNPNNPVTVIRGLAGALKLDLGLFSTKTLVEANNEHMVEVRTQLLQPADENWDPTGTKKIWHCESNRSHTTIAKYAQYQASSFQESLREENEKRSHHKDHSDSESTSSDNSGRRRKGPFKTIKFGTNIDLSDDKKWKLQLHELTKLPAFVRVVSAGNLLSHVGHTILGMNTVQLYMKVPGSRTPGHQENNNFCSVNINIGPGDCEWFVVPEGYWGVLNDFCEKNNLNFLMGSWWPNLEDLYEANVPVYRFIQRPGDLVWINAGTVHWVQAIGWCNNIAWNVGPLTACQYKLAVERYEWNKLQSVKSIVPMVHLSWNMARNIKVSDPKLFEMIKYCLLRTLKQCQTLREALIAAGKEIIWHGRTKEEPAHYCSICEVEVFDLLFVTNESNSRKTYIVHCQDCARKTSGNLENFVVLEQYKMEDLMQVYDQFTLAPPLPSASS
T8 sequence (Q9NR22 whole entry): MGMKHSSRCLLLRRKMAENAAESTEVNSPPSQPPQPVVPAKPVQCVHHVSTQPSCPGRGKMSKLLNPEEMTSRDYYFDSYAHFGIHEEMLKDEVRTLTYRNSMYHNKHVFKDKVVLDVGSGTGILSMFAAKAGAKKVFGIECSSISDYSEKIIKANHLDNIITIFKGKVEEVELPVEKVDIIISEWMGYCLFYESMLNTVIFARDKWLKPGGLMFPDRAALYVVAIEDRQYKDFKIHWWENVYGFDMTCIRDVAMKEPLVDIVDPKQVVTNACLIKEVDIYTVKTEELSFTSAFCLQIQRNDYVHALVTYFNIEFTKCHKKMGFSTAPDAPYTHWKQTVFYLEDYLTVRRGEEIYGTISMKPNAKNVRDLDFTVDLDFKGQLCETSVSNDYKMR
T3 sequence (Q9H3R0 whole entry): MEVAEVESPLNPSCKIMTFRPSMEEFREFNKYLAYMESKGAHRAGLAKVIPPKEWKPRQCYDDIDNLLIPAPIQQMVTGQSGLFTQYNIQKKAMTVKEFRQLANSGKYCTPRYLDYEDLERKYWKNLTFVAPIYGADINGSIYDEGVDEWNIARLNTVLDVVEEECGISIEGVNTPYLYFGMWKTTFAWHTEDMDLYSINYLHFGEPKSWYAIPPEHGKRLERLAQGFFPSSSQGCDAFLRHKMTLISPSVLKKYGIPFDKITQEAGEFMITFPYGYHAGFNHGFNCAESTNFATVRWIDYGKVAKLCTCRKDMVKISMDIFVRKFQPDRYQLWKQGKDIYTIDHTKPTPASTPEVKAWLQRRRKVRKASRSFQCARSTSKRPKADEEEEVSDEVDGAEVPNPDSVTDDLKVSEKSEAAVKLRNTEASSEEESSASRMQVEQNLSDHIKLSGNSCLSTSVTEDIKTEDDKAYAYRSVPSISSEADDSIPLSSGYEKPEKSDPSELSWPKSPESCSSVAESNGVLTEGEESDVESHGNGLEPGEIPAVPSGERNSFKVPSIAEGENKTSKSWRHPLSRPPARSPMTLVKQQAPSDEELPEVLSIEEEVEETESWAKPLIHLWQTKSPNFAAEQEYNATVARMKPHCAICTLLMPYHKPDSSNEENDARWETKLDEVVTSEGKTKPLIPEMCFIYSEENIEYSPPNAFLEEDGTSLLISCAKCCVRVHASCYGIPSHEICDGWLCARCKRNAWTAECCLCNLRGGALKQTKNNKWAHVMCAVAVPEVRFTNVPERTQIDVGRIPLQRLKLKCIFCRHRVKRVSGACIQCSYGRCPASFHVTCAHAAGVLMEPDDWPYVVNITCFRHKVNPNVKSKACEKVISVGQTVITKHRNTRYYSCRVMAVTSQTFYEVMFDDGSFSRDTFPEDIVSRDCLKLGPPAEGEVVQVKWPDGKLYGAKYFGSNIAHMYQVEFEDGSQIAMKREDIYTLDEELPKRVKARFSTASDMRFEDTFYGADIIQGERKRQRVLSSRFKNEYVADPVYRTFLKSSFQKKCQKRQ
T4 sequence (Q6B0I6 whole entry): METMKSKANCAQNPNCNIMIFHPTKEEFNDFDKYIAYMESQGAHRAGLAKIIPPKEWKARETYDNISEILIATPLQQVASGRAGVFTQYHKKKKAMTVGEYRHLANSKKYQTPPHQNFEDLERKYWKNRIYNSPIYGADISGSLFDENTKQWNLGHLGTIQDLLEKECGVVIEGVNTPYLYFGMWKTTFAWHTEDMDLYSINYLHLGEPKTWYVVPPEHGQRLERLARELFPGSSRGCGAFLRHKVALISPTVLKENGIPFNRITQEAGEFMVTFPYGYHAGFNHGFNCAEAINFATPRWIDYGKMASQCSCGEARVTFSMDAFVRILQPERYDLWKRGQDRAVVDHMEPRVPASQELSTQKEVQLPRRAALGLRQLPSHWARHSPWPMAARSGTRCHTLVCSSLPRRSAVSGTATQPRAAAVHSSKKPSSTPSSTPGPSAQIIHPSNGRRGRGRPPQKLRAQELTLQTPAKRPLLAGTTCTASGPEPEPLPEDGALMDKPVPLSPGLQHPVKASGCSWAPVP
T10 sequence (Q8N6T7 whole entry): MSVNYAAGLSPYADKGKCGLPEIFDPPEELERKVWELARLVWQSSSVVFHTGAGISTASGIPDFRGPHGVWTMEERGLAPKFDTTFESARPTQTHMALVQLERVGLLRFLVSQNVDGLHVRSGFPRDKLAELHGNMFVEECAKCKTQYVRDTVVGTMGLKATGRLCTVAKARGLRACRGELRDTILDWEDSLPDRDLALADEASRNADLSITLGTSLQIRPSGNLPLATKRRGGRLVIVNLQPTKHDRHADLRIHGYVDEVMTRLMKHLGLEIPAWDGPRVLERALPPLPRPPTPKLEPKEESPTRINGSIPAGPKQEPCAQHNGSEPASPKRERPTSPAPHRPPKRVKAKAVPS
T11 sequence (O43463 whole entry): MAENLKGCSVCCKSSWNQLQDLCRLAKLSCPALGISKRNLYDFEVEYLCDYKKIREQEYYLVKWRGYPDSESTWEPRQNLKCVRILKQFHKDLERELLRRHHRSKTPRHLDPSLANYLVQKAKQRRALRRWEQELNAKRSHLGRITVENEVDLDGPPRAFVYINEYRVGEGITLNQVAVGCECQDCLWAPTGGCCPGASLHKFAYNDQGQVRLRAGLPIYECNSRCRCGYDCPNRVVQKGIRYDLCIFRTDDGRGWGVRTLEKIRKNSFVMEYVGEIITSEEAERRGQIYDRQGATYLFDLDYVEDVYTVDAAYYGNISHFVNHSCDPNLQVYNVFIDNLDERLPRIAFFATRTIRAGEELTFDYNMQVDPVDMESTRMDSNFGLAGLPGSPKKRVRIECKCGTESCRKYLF
T9 sequence (Q96EB6 whole entry): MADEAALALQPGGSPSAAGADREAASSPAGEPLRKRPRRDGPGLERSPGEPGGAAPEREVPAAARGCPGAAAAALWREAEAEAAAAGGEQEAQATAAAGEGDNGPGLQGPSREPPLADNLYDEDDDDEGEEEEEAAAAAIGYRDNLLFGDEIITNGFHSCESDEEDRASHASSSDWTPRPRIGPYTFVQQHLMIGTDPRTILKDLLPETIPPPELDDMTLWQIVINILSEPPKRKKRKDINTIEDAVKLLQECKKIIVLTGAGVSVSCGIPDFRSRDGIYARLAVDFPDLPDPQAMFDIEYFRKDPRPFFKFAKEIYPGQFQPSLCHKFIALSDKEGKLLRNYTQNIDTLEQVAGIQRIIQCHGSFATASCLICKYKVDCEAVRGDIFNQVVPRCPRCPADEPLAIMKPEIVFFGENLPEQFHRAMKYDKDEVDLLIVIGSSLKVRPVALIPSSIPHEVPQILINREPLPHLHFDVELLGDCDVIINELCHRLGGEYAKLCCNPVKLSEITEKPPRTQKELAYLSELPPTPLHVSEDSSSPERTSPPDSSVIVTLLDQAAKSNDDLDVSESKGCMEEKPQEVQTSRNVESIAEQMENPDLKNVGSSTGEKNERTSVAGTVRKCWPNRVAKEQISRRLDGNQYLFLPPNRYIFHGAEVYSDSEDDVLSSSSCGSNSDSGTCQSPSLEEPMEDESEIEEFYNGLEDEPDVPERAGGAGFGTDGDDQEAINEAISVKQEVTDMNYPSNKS

With `COc1cc2nc(-c3cc(C)oc3C)cc(NCC3CCN(c4ncc(C(=O)NO)cn4)CC3)c2cc1OC` [CM-1758, 2-[4-[[[2-(2,5-dimethyl-3-furyl)-6,7-dimethoxy-4-quinolyl]amino]methyl] -1-piperidyl]pyrimidine-5-carbohydroxamic acid], the inhibition at 10 µM at DNMT3B/3L stood at 20%; against EZH2 (A677G), 5%; at JMJD2C it was 9%; against JMJD2D, 0%; on LSD1 it was 20%; against NSD2, 16%. The inhibition at 10 µM came out at 0% against PRMT1; 0% at PRMT8; 1% against SIRT1; 4% at SIRT6; 1% against SUV39H1; 91% on UTX. The IC50 against UTX was determined as 2200 nM. The half-life at 1 µM in series [1] (setting [2]) was 92.1 min; in series [1] (setting [3]), 19.5 min.
Take `COc1cc2nc(-c3ccc(C)o3)cc(NCC3CCN(c4ncc(C(=O)NO)cn4)CC3)c2cc1OC` [CM-444, 2-[4-[[[6,7-dimethoxy-2-(5-methyl-2-furyl)-4-quinolyl]amino]methyl]-1-piperidyl]pyrimidine-5-carbohydroxamic acid]: the IC50 stood at 2300 nM at DNMT3B/3L and 1500 nM against UTX. Further, the inhibition at 10 µM at DNMT3B/3L turned out to be 68%; against EZH2 (A677G) it was 0%; on JMJD2C it was 4%; on JMJD2D, 5%; against LSD1 it was 16%; against NSD2, 35%. For the same compound, the inhibition at 10 µM at PRMT1 turned out to be 0%; on PRMT8, 0%; against SIRT1, 13%; against SIRT6, 15%; on SUV39H1, 1%; against UTX, 95%. For the same compound, the half-life at 1 µM in [1] (setting [2]) is 71.1 min; in series [1] (setting [3]), 22.8 min.

(Values after publication PMC11219871, “Epigenetic-based differentiation therapy for Acute Myeloid Leukemia” (Nature Communications, 2024).)
